Tests used:
[1] = Tissue distribution of OLC and its metabolites in rats after oral gavage of OLC-enriched refined olive oil (LC-ESI-LTQ-Orbitrap-MS); type: in vivo, Male Sprague Dawley rats; conditions: for plasma and tissues in which the compound was detected: liver, kidney, spleen, lungs, heart, brain, thyroid, skin, 1, 2, 4.5 h after oral ROO with OLC; for decrease of OLC concentration in the intestine / decrease of OLC concentration in the stomach: relative to the maximum at 1 h; for decrease of OLC concentration in the stomach: stomach samples
Procedure: The studies were conducted following a protocol approved by the Animal Experimentation Ethics Committee of the University of Barcelona, Spain (trial no. CEEA 124/16) and Generalitat de Catalunya (no. 6435). Male Sprague Dawley rats (body weight 249 ± 8 g) were purchased from Envigo RMS Spain S.L. (Sant Feliu de Codines, Barcelona, Spain). The animals were acclimatized in animal housing in an air-conditioned room at 22 ± 2 °C under a 12 h/12 h cycle of light and darkness and given free access to a commercial diet (Teklad 2014, Envigo RMS Spain S.L.) and water for at least 10 days before the study. The rats were fasted for over 12 h before the experiments but were allowed free access to water.
Before the distribution experiment, the ROO (vehicle) was analyzed by LC-ESI-LTQ-Orbitrap-MS to make sure it was free of phenolic compounds. The liquid–liquid extraction of phenolic compounds of ROO was performed following the previously described procedures. The chromatographic and mass spectrometer conditions were the same as those used for the identification of metabolites (Section 2.3). After verifying that the ROO was free of phenols, OLC was added to obtain a final concentration of 0.3 mg/mL. The OLC concentration was chosen while taking into account both the OLC concentration in commercial EVOO (~300 mg/kg) and the daily ingestion of EVOO recommended by the European Food Safety Authority of at least 5 mg of hydroxytyrosol and its derivatives per 20 g of olive oil.
The rats were divided into four groups—a control group (no administration) and three dosed groups—to study the distribution of OLC at three different time points: 1, 2 and 4.5 h post-administration. On treatment day, the rats received the ROO containing OLC by oral gavage (2.5 mL/300 g body weight). The volume for gavage administration was established following a good practice guide for substance administration and was lower than the maximum volume of lipid vehicles per kg of rat body weight that prevented elevated plasma corticosterone levels.
The rats were anesthetized with isoflurane (IsoFloR, Veterinaria Esteve, Barcelona, Spain) and euthanized by exsanguination via cardiac puncture at 1, 2 or 4.5 h after ROO ingestion. The control group was maintained under fasting conditions without olive oil ingestion and then similarly euthanized. The blood was collected in EDTA tubes, and plasma samples were obtained by centrifugation (3000× g for 10 min at 4 °C) and stored at −80 °C until analysis. Different tissues and organs (heart, liver, spleen, lungs, kidney, brain, thyroid, stomach, small intestine and skin) were removed from the rats and placed in pre-weighed tubes. The small intestine samples consisted of a pool of duodenum, jejunum and ileum segments, but the main region used was the jejunum. The procedure was to locate the plica duodenocolica and, from there up to about 5 cm of the intestine before reaching the cecum, to remove it from the animal. The collected tissues were washed with physiological serum at 37 °C and placed between absorbent paper to remove the rest of the serum. In the case of the intestine, the luminal contents were first removed by applying pressure with the index finger and thumb, and then the lumen was washed by perfusing with the physiological serum at 37 °C. It was then placed between absorbent paper to remove the remains of the washings. In order to avoid compound oxidation, the collected tissues were kept on ice at all times. Finally, the samples were weighed and stored at −80 °C until analysis. For each group, four animals were used.
The tissues were homogenized with a small tissue disruptor (T 10 basic ULTRA-TURRAX®, IKA laboratory technology, Staufen Germany) in a 1:1 ratio (w/v) with water:ACN (1:1 (v/v) with 0.1% ascorbic acid). The samples were sonicated for 5 min in an ice bath and shaken for 1 min (Vortex-Genie 2). Each homogenate was centrifuged for 10 min (11,000× g at 4 °C). […]

[2] = set-up: method as in PMID 33348608; conditions: in vivo, rats; cited from earlier work
[3] = set-up: method as in doi:10.1016/j.foodchem.2009.07.017; conditions: cited from earlier work
[4] = plasma, stomach, small intestine

| SMILES | plasma and tissues in which the compound was detected [1, 4] | time of Cmax (highest concentration among the three sample times 1, 2, 4.5 h) ([1]; small intestine) | time of Cmax (highest concentration among the three sample times 1, 2, 4.5 h) ([1]; stomach) | detection in plasma ([1]; plasma) | decrease of OLC concentration in the intestine ([1]; small intestine, 2 h post-ingestion) | decrease of OLC concentration in the intestine ([1]; small intestine, 4.5 h post-ingestion) | decrease of OLC concentration in the stomach ([1]; 2 h post-ingestion, ROO with 0.3 mg/mL OLC by oral gavage 2.5 mL/300 g body weight) | decrease of OLC concentration in the stomach ([1]; 4.5 h post-ingestion) | intestinal absorption [2] | concentration in the aqueous phase (partition between the oily and aqueous phase) ([3]; digestion of dietary lipids, lipid–water emulsion) | stability in the gastric phase ([3]; in vitro digestion study) |
| --- | --- | --- | --- | --- | --- | --- | --- | --- | --- | --- | --- |
| OCCc1ccc(O)cc1 [TY, tyrosol] | only detected in the stomach and intestinal samples | 1 h | 1 h |  |  |  |  |  |  |  |  |
| C/C=C(/C=O)[C@@H](CC=O)CC(=O)OCCc1ccc(O)cc1 [OLC, oleocanthal] | only detected in the stomach and small intestine samples | 1 h | 1 h | not found in the plasma | 16% | 33% | 36% | 74% | 16% | 68.7% | good OLC stability in the gastric phase |

— PMC8146289, “Tissue Distribution of Oleocanthal and Its Metabolites after Oral Ingestion in Rats” (Antioxidants, 2021)
